According to patent US12496301B2, “Use of androgen receptor degrader for the treatment of spinal and bulbar muscular atrophy” (Arvinas Operations, Inc., priority 2023, dated 2025):

Assays:
endogenous AR = molecular target: T1, endogenous AR (Mus musculus, UniProt P19091); assay: In vivo AR degradation in LABC muscle of C57Bl/6 mice (mouse AR ELISA), PK/PD
T1 construct: from tissue; host or cells: mouse LABC muscle (C57Bl/6 and hAR100Q mice); quadriceps (hAR100Q mice)
T1 sequence (P19091 1-899): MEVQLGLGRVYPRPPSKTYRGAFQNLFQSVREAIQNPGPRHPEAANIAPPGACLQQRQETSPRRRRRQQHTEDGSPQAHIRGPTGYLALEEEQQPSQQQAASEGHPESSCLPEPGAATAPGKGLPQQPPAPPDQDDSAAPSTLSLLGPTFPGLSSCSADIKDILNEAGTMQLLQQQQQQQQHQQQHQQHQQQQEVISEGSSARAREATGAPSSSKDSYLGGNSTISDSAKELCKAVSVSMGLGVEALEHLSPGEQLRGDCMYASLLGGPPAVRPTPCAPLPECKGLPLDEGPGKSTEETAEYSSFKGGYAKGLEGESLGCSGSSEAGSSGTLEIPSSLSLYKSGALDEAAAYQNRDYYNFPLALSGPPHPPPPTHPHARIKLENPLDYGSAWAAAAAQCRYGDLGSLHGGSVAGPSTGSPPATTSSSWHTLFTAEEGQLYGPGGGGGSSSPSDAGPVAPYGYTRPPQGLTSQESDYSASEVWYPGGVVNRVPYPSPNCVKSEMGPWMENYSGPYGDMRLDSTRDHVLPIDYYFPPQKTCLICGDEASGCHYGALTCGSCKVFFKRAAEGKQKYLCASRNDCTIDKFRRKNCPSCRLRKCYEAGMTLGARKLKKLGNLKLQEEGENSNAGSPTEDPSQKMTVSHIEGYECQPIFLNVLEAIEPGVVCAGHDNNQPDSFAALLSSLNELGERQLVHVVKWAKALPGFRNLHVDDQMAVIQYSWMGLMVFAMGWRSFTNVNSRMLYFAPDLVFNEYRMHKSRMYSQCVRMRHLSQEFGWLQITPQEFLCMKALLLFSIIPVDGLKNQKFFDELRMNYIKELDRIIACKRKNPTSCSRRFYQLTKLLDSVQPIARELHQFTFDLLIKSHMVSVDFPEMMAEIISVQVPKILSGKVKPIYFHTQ
Protocol: Using six- to eight-week-old C57Bl/6 male mice, chow and water were provided ad libitum. Compounds were administered by oral gavage at the indicated dose using 5% dimethyl sulfoxide (DMSO), 95% (2% Tween 80, PEG 400) as the vehicle. Mice were euthanized by using Isoflurane inhalation (2-4% induction) followed by decapitation 24 hours post dose unless otherwise indicated. The levator ani/bulbocavernosus (LABC) muscle was dissected and immediately snap frozen and stored at −80° C. prior to analysis. Compound exposure was measured in serum and muscle lysates.
Anti-androgen receptor rabbit polyclonal antibody, clone PG-21 (Millipore; 06-680), was diluted in BupH carbonate-bicarbonate buffer (Thermo; 28382) to a concentration of 2 μg/mL and coated onto 96-well ELISA plates by incubating 50 μL per well overnight at 37° C. Plates were washed 4× with tris-buffered saline (TBS) buffer containing 0.1% Tween-20 (TBS-0.1% T) and blocked with 3% bovine serum albumin in TBS-T for 3 hours at room temperature (200 μL per well). AR peptide standard (Creative Biomart; Cat. No. AR-9788H) and samples were diluted in 1% bovine serum albumin (BSA)/TBS-0.05% T. After the blocking period, plates were washed as above, and 50 μL of standard and samples were added. Plates were incubated overnight at 4° C. with shaking. Following the incubation period, the plates were allowed to acclimate to room temperature with shaking for 1 hour. The detection antibody (anti-AR antibody, clone EPR1535 (abcam; ab194196)), conjugated to horse radish peroxidase (HRP), was diluted 1:15000 in 1% BSA/TBS-0.05% T and co-incubated with the samples by adding 50 μL to each well and shaking for 2 hours at room temperature. Plates were washed as above. Chemiluminescent substrate (ELISABright; Advansta; K-16025) was added to the plates (100 μL per well).
In vivo degradation of endogenous AR was evaluated for 95 compounds in murine levator ani/bulbocavernosus (LABC) muscle using a 30 mg/kg PO dose (see Example 1). The observed AR degradation for these 95 compounds ranged from 0-85% of AR in mouse LABC.

polyQ-AR = assay: Myotube high content imaging of polyQ-AR in myotubes that overexpress polyQ-AR; type: cell-based, human; details: 24 hours treatment, nuclear compartment
Protocol: Cells were maintained in skeletal growth medium (PromoCell #23160). Immortalized myoblasts harboring inducible human androgen receptor with 56 CAG repeats (hAR56Q) were constructed by lentiviral transduction with CMV-rtTA and TetO-AR56Q-T2A-Puromycin (Mamchaoui, K. et al. Skeletal Muscle 1, 34 (2011)).
On day 0, immortalized myoblasts with inducible polyQ-AR (described above in “Cell lines”) cells were seeded onto Geltrex-coated 96-well plates at a density of 4×10^6 cells per plate in myoblast basal media (Promocell C-23060) supplemented with 1% penicillin-streptomycin (Pen Strep) antibiotics. The plates were then incubated overnight at 37° C. in a 5% CO2 environment. Upon reaching 100% confluency (Day 1), the myoblast media were aspirated and replaced with myotube differentiation media (Promocell C-23061). The cells were cultured in this differentiation media for 6 days, with media changes occurring every three days.
On the sixth day of differentiation, the compounds and doxycycline ([…]) diluted in 100% dimethyl sulfoxide (DMSO) were added to the myotubes. The plate was then incubated for 24 hours at 37° C. in an incubator. On the following day (Day 7), the culture media was removed from the plates and replaced with 50 μL of 4% paraformaldehyde (PFA) prepared in 1× phosphate-buffered saline (PBS). The plates were incubated with PFA for 15 minutes, followed by three washes with PBS. Subsequently, the myotubes were permeabilized for 15 minutes using 0.5% Triton X-100 in 1×PBS and then blocked with 5% Bovine Serum Albumin (BSA) (Thermofisher, #37520) for one hour at room temperature. After blocking, the plates were incubated overnight at 4° C. with primary antibodies: a 1:100 diluted Androgen Receptor antibody (D6F11 Cell Signaling 5135S) and a 1:200 diluted Desmin antibody (Thermofisher, MA1-22150) in PBS containing 0.1% BSA. […] Degradation was quantified by determining the average intensity of AR within separate nuclear and cytoplasmic compartments in Desmin positive area (myotubes).

SMILES: CC(C)N(CC1CCN(c2ncc(C(=O)N[C@H]3C(C)(C)[C@H](Oc4ccc(C#N)c(Cl)c4)C3(C)C)cn2)CC1)[C@H]1C[C@H](Oc2ccc3c(c2)C(=O)N(C2CCC(=O)NC2=O)C3=O)C1 (stereo partly shown) [Compound A, N-((1r,3r)-3-(3-chloro-4-cyanophenoxy)-2,2,4,4-tetramethylcyclobutyl)-2-(4-((((1r,3r)-3-((2-(2,6-dioxopiperidin-3-yl)-1,3-dioxoisoindolin-5-yl)oxy)cyclobutyl)(isopropyl)amino)methyl)piperidin-1-yl)pyrimidine-5-carboxamide]
- time for AR levels in LABC muscle to return to normal post administration (endogenous AR; 30 mg/kg, once per day (QD) for 3 days): about 3 days
- time for AR to return to basal levels in LABC muscle (endogenous AR; mouse LABC muscle): 48 to 72 h
- dose that achieves AR degradation of ~50% (endogenous AR; mouse muscle): About 10 mg/kg
- mean Dmax for polyQ-AR in myotube nuclei (polyQ-AR): approximately 40%
